The text below walks through data of article PMC11748620, “Evaluation of maSSS/maSES-PEG2-RM26 for their potential therapeutic use after labeling with Re-188. Could their [^99mTc]Tc-labeled counterparts be used to estimate dosimetry?” (EJNMMI Radiopharmacy and Chemistry, 2025).

Structures are written as SMILES.

In this data set the test system is PC-3 xenografts. The experiment in a line: Ex vivo biodistribution in PC-3 xenograft bearing mice. Also on record: species or system BALB/C nu/nu mice. Conditions: mice bearing PC-3 xenografts, 4 h pi. The source says:
Animal studies were in compliance with the European guidelines for laboratory animal protection. BALB/C nu/nu mice were used and the experimental protocols were approved by the ethics committee for animal research in Uppsala (Sweden); permit number 00473/21.
The biodistribution profiles and tumor targeting of maSSS-/SES-PEG2-RM26, labeled with Re-188 or Tc-99 m, were compared head-to-head in the same batch of animals, inoculated with the same PC-3 cells-suspension. After acclimatization, animals were inoculated subcutaneously (right hind leg) with 7 × 10^6 freshly harvested PC-3 cells per animal, in PBS. After approximately four weeks solid tumors were present at the inoculation sites and the animals were randomly divided in groups of four.
For the ex vivo biodistribution experiments animals were injected via the tail vein with 50 pmol (120 kBq for Re-188 and 60 kBq for Tc-99 m) of the radiopeptide under evaluation, in 100 µl solution in PBS supplemented with 1% w/v BSA. Animals were euthanized at 1 h and 4 h post injection (pi) and tissues / organs of interest and tumors were collected, weighted and their radioactivity content was measured on a gamma counter. Each group comprised by four animals (n = 4).
Statistical analysis was performed using GraphPad Prism, employing a two-way ANOVA test with Tuckey’s posthoc analysis.

In the case of `CC(C)C[C@H](NC(=O)C[C@H](O)[C@H](CC(C)C)NC(=O)[C@H](Cc1c[nH]cn1)NC(=O)CNC(=O)[C@@H](NC(=O)[C@H](C)NC(=O)[C@H](Cc1c[nH]c2ccccc12)NC(=O)[C@H](CCC(N)=O)NC(=O)[C@@H](Cc1ccccc1)NC(=O)COCCOCCNC(=O)[C@H](CO)NC(=O)[C@H](CCC(=O)O)NC(=O)[C@H](CO)NC(=O)CS)C(C)C)C(N)=O` [maSES-PEG2-RM26, mercaptoacetyl-Ser-Glu-Ser-PEG2-RM26], the “ratio of activity uptake in caecum, Re-188 over Tc-99 m” value was found to be 2.3 fold.
As to `CC(C)C[C@H](NC(=O)C[C@H](O)[C@H](CC(C)C)NC(=O)[C@H](Cc1c[nH]cn1)NC(=O)CNC(=O)[C@@H](NC(=O)[C@H](C)NC(=O)[C@H](Cc1c[nH]c2ccccc12)NC(=O)[C@H](CCC(N)=O)NC(=O)[C@@H](Cc1ccccc1)NC(=O)COCCOCCNC(=O)[C@H](CO)NC(=O)[C@H](CO)NC(=O)[C@H](CO)NC(=O)CS)C(C)C)C(N)=O` [maSSS-PEG2-RM26, mercaptoacetyl-Ser-Ser-Ser-PEG2-RM26], the “ratio of activity uptake in caecum, Re-188 over Tc-99 m” value came out at 1.4 fold.
